# Assay results: patent US9296778B2, “3′,5′-cyclic phosphate prodrugs for HCV infection” (Idenix Pharmaceuticals, Inc., priority 2012, dated 2016)
# pEC50: −log10 of the molar value. Like-named read-outs stand apart in the source and are kept apart here.
# Columns and labels:
# [1] = tested on: HCV genotype 1b replicon; experiment: HCV Replicon Assay; assay type: cell-based; conditions: Zluc cells (Huh-7-derived, HCV genotype 1b replicon, luciferase reporter), 72 hours; read-out: HCV Replicon EC50
# Method in brief: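 Zluc Huh-7 cells with HCV genotype 1b replicon and luciferase reporter treated with 5-fold dilutions (100 μM to 0.0000512 μM final) in duplicate, or at 1 and 10 μM. Luminescence read with ONE-glo; EC50 from dose-response fits, or % inhibition at the fixed concentrations.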
# [2] = Stability in simulated gastric fluid; assay type: in vitro ADME; conditions: 100 μM, 2 hours at 37° C., percent of the peak area at time zero
# Experimental: Simulated gastric and intestinal fluids containing pepsin and pancreatin respectively were prepared according to the U.S. Pharmacopoeia USP291 procedure (www.pharmacopeia.cn/v29240/usp29nf24s0_ris1s126.html). Compounds (final concentration 100 μM) were incubated in duplicate in the appropriate fluid for 2 hours at 37° C. The samples were quenched with 200 μl cold acetonitrile, vortexed for 30 seconds and then centrifuged at 16,100 g for 10 min. The supernatants were analyzed by HPLC on a C-18 column with UV detection at 252 nm. The time 0 samples were prepared by adding SGF or SIF fluid to the quenching solvent followed by the test compound. Stability of the compounds was determined by peak area of the test compounds after incubation and calculated as percent of the peak area observed at time zero.
# [3] = tested on: Zluc cells; experiment: cytotoxicity evaluation (CellTiter-Blue Cell Viability Assay); conditions: read-out: HCV Replicon CC50; Zluc cells, CellTiter-Blue
# [4] = Stability in fresh human whole blood; assay type: in vitro ADME; conditions: 0.5 μM, percent unchanged test compound
# Method in brief: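 Test compound at 0.5 μM was incubated at 37 °C in fresh human K2EDTA whole blood, stored at 2–8 °C and used within 7 days, in triplicate. Samples taken at 0, 0.5, 1 and 2 h were quenched in cold acetonitrile containing internal standard and analysed by LC-MS/MS. Percent unchanged compound was derived from peak-area ratios.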
# [5] = Stability in simulated intestinal fluid; assay type: in vitro ADME; conditions: 100 μM, 2 hours at 37° C., percent of the peak area at time zero
# Method in brief: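 Compounds at 100 μM final, in duplicate, kept 2 h at 37° C in USP gastric fluid (pepsin) or intestinal fluid (pancreatin). Quenched with cold acetonitrile, supernatant analysed by C-18 HPLC, UV 252 nm. Remaining compound expressed as percent of time-zero peak area.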
# [6] = Stability in mouse blood; assay type: in vitro ADME; conditions: on ice, percent unchanged test compound
# Method in brief: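 Test compound at 0.5 μM final in whole blood, held on ice; sampled at 0, 0.5 and 1 hr in triplicate. Samples quenched with acetonitrile containing internal standard and analysed by LC-MS/MS; percent unchanged compound from peak area ratio to internal standard.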
# [7] = Stability in liver subcellular fractions (microsomes); assay type: in vitro ADME, human; conditions: 10 μM, 1.0 mg/mL microsomal protein, NADPH, 60 min, percent unchanged test compound
# Experimental: Stability of compounds were determined in subcellular fractions (microsomes) of human liver in duplicate for each matrix. Pooled liver microsomal proteins (1.0 mg/mL), suspended in incubation buffer (100 mM potassium phosphate, pH 7.4, 5 mM MgCl2, and 0.1 mM EDTA), were preincubated for 5 min at 37° C. with 10 μM of a test compound from a 10 mM stock solution in DMSO (final DMSO concentration was 0.1%); the reaction was initiated by the addition of NADPH (3 mM final concentration). At specific times (0 and 60 min), 0.1 mL samples were taken and the reaction terminated by the addition of 4 volumes of stop solution (acetonitrile with 500 ng/mL carbutamide as an internal standard). The samples were vortexed for 30 sec and then centrifuged at 16,000 g for 10 min. 100 μL of supernatants were transferred to 96 deep-well plates preloaded with 100 μL distilled water and analyzed after mixing by LC-MS/MS. The MS peak area ratio of the test compounds versus the internal standard was calculated and percent unchanged test compound over 60 minutes was calculated using this ratio.
# [8] = tested on: fresh human hepatocytes; experiment: Release of active metabolite in fresh human hepatocytes; assay type: in vitro ADME; conditions: 10 μM compound; for FHH TP Cmax: fresh human hepatocytes; for FHH TP AUC: fresh human hepatocytes, 6, 24 and 48 hours
# Method in brief: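 Overnight-acclimatized hepatocytes (0.8 million cells/well human, 0.5 million mouse) incubated at 37 °C with 10 μM test compound (0.1% DMSO). Sampled at 6, 24, 48 h (human) or 1, 4, 8, 12, 24 h (mouse); cells washed, extracted in cold 70% methanol, intracellular content quantified by LC-MS/MS with internal standard.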
# [9] = tested on: Zluc cells
# [10] = tested on: Huh-7 cells; experiment: Release of active metabolite in Huh-7 cells; assay type: in vitro ADME, human; conditions: Huh-7 cells, AUC0-72
# Experimental: Huh-7 cells were plated in 1 mL culture medium (DMEM, containing glucose, L-glutamine and sodium pyruvate, 10% FBS, 100 IU/mL penicillin, 100 μg/mL streptomycin, 2 mM GlutaMAX, 1% MEM non-essential amino acids) at the concentration 0.8, 0.4 and 0.2 million cells per well on 6 well plates for 24, 48 and 72 hr treatment, respectively. Plated cells were incubated overnight at 37° C. in an incubator.
# The following morning compounds was diluted to 20 μM from a stock solution in DMSO in fresh culture medium pre-warmed to 37° C. and 1 mL of the solution/well was added to cells. A final medium volume per well was 2.0 mL, Compound concentration in well was 10 μM and final DMSO concentration was 0.1%.
# After 24, 48 or 72 hr, the medium was carefully removed and cell monolayers were washed twice with 2 mL ice-cold PBS per well. Following the last wash, all PBS was carefully removed and 1.0 mL of extraction solution (ice-cold 70% methanol) added. The plate was tightly covered with Parafilm, plastic plate cover and Parafilm again and an intracellular content was extracted at −20° C. for 24 hr.
# After 24 hr extracts were transferred into polypropylene microfuge tubes and dried on a refrigerated centrivap concentrator. Dry residues were reconstituted in 250 μL of HPLC-grade water and centrifuged at 16,000×g for 10 min. Aliquots (100 μL each) of the supernatants were transferred into a 96 well plate and internal standard (4 ng/mL final concentration) was added as the internal standard (IS) for LC-MS/MS analysis.
# [11] = molecular target: T1, cathepsin A (CatA) (Homo sapiens, UniProt P10619); experiment: CatA hydrolysis assay; assay type: in vitro ADME
# T1 construct: purchased R & D Systems (Minneapolis, Minn.)
# T1 sequence (P10619 29-326 limits assumed): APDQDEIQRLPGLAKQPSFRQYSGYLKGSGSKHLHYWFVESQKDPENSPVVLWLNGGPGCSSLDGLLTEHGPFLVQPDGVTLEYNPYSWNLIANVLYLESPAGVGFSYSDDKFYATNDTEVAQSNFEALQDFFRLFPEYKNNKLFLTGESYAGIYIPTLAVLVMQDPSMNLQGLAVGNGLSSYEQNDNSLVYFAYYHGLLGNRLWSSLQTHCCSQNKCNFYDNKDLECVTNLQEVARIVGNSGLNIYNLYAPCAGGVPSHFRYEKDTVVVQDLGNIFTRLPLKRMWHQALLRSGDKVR
# T1 sequence (P10619 327-480 limits assumed): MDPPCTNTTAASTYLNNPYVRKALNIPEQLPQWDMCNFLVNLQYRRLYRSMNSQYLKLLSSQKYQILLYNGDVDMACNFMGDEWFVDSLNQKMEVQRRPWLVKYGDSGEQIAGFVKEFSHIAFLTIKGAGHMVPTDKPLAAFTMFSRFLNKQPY
# Experimental: CatA, cathepsin L (CatL) and CES1 were purchased from R & D Systems (Minneapolis, Minn.). Prior to the enzymatic hydrolysis reactions, CatA was activated according to the manufacturer's instruction. Briefly, CatA (0.05 μg/μL) was incubated with CatL (0.005 μg/μL) for 30 min at 37° C. in 25 mM MES pH 6.0 containing 5 mM DTT. The reaction was stopped by addition of the CatL specific inhibitor E64 (10 μM).
# The CatA assay was performed at 37° C. The reaction mixture contained 25 mM MES buffer pH 6.0, 100 mM NaCl, 4 mM DTT and 100 μM of the compound. The reaction was started by addition of the activated CatA enzyme to a final concentration of 0.005 μg/μL. One hundred-μL aliquots were taken after 0.5 min, 3 hrs and 18 hrs of incubation. Reactions were stopped by mixing the sample with an equal volume of ice-cold methanol, and were loaded on a HPLC for analysis.
# (§1) Samples were analyzed by HPLC using 5μ C-18, 4.6×250 mm Phenomenex® Columbus column (Phenomenex USA, CA). The mobile phase consisted of buffer A (25 mM potassium phosphate with 5 mM tetrabutylammonium dihydrogen phosphate pH 6.3) and buffer B (100% methanol).
# [12] = molecular target: T2, carboxylesterase 1 (CES1) (Homo sapiens, UniProt P23141); experiment: CES1 hydrolysis assay; assay type: in vitro ADME; conditions: for CES1 hydrolysis: 100 μM compound, 37° C.
# T2 construct: purchased R & D Systems (Minneapolis, Minn.)
# T2 sequence (P23141 18-567): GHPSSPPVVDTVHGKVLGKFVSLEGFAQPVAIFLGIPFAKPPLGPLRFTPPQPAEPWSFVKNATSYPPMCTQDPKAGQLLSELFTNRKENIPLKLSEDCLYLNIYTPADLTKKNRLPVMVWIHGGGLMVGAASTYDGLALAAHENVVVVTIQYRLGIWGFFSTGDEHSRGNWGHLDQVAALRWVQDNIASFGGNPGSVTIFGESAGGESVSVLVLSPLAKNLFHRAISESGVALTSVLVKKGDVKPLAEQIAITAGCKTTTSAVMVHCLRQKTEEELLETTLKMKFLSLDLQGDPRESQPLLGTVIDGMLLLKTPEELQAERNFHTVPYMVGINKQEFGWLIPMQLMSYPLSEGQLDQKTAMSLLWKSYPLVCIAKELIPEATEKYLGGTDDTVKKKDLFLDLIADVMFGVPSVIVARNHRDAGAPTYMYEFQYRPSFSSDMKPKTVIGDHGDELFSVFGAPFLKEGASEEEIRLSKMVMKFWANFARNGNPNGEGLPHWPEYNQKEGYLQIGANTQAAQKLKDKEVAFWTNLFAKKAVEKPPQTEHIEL
# Experimental: CES1 assay was performed at 37° C. in the reaction mixture containing 50 mM Tris/HCl buffer pH 7.5 and 100 μM of the compound. Reaction was started by addition of the CES1 to the final concentration 0.01 μg/mL. 100 μL aliquots were taken after 0.5 min, 3 hrs and 21 hrs of the incubation and the reaction was stopped by mixing with 100 μl of the ice-cold methanol prior to HPLC analysis.
# as §1
# [13] = tested on: genotype 1b HCV replicon; experiment: genotype 1b HCV replicon-bearing Huh-7 cells (Table 5); assay type: cell-based; conditions: Hepatitis C virus
# Text: In vivo Z4 and Z2 appear to be effectively liver-targeted with a high liver:plasma ratio of drug metabolites. Both prodrugs are readily converted to the triphosphate (TP) metabolite in the liver of mice and monkey producing more TP than GS-7977. […] The in vitro antiviral inactivity of Z4 and Z2 is thought to reflect an inability of Huh-7 replicon cells to metabolize the prodrug moiety.
smiles,measurement,setting,value
"CCOC(=O)COP1(=O)OC[C@H]2O[C@@H](n3cnc4c(OCC)nc(N)nc43)[C@](C)(F)[C@@H]2O1 (single isomer, unassigned; diastereomer 1) [Compound 7 Diastereomer 1]",pEC50,[1],> 6.60
same,Stability SGF,[2],87%
same,CC50,[3],> 50000 nM
same,Stability WB_Human (37° C.; 2 hr),[4],25%
same,Stability SIF,[5],50%
same,Stability WB_Mouse (ice; 1 hr),[6],1%
same,Stability HLM (1 hr),[7],0.5%
same,FHH TP Cmax,[8],31 pmol/mill cells
same,FHH TP AUC,[8],377 pmol · hr/mill cells
"CCOc1nc(N)nc2c1ncn2C1OC2COP(=O)(OCC(NC(=O)OC)C(C)(C)C)OC2C1(C)F (single isomer, unassigned; diastereomer 1) [Compound 10 Diastereomer 1]",pEC50,[1],6.00 to 6.60
same,CC50,[9],> 50000 nM
"CCOc1nc(N)nc2c1ncn2C1OC2COP(=O)(Oc3ccc(CC(NC(=O)OC)C(=O)OC(C)C)cc3)OC2C1(C)F (single isomer, unassigned; diastereomer 1) [Compound 13 Diastereomer 1]",pEC50,[1],> 6.60
same,CC50,[3],> 50000 nM
same,Stability WB_Human (37° C.; 2 hr),[4],29%
same,Stability SIF,[5],72%
same,Stability WB_Mouse (ice; 1 hr),[6],1%
same,Stability HLM (1 hr),[7],0.4%
same,FHH TP Cmax,[8],44 pmol/mill cells
same,FHH TP AUC,[8],1632 pmol · hr/mill cells
"CCOc1nc(N)nc2c1ncn2[C@@H]1O[C@@H]2COP(=O)(OCCSSC(C)(C)C)O[C@H]2[C@@]1(C)O (single isomer, unassigned; diastereomer 1) [Compound 23 Diastereomer 1]",pEC50,[1],> 6.60
same,CC50,[9],< 50000 nM
"CCOc1nc(N)nc2c1ncn2[C@@H]1O[C@@H]2COP(=O)(OCCSC(=O)C(C)(C)CO)O[C@H]2[C@@]1(C)OC(C)=O (single isomer, unassigned; diastereomer 2) [Compound 16 Diastereomer 2]",pEC50,[1],> 6.60
same,CC50,[9],< 50000 nM
CC(C)OC(=O)[C@H](C)N[P@](=O)(OC[C@H]1O[C@@H](n2ccc(=O)[nH]c2=O)[C@](C)(F)[C@@H]1O)Oc1ccccc1 [GS-7977],Huh-7 AUC0-72,[10],63555 pmol * hr/10^6cells
same,hydrolysis by CatA (in words),[11],hydrolyzed
same,CatA hydrolysis,"[11]; 100 μM compound, 37° C., 18 h",100% @ 18 h
same,CatA cleavage efficiency relative to RP diastereoisomer,[11]; GS-7977 (SP) versus its RP diastereoisomer,10 times
same,hydrolysis by CES1 (in words),[12],hydrolyzed
same,CES1 hydrolysis,[12]; 3 h,12%/3 h;
same,CES1 hydrolysis,[12]; 21 h,15%/21 h
same,pEC50,[13],6.60
CC(C)OC(=O)[C@H](C)N[P@@](=O)(OC[C@H]1O[C@@H](n2ccc(=O)[nH]c2=O)[C@](C)(F)[C@@H]1O)Oc1ccccc1 [PSI-7076],hydrolysis by CatA (in words),[11],hydrolyzed
same,hydrolysis by CES1 (in words),[12],hydrolyzed
